Blank lines part the entries; values can stand above or below the substance they belong to. {6-FAM} = 6-carboxyfluorescein label; {Dabcyl} = Dabcyl quencher
How the values were obtained:
α-thrombin [1] = molecular target: T1, α-thrombin (Homo sapiens, UniProt P00734); test: FRET-based signaling aptamer binding to α-thrombin (6-FAM quenching); conditions: 100 nM aptamer, 500 nM α-thrombin
T1 construct: Human oa-thrombin (M.W. ˜36.7 kDa); purchased Haematologic Technologies Inc. (Essex Junction, Vt.)
Text: Dye-labeled aptamers were obtained from Integrated DNA Technologies, Inc. (Coralville, Iowa). The sequences of the 15mer and 27mer thrombin-aptamer are 5′-GGT TGG TGT GGT TGG-3′ (SEQ ID NO 1), and 5′-ACCCGTGGTAGGGTAGGATGGGGTGGT-3′ (SEQ ID NO 2) respectively. For FRET-based assays, both aptamers were dual-labeled with 6-FAM at the 5′ end and Dabcyl at the 3′ end. For fluorescence anisotropy assays, both aptamer sequences were labeled with only TAMRA at the 3′ end. A control 15mer aptamer was labeled with only 6-FAM at the 3′ end. All aptamers were purified with HPLC. […]
Fluorescence measurements were performed on a Fluorolog-3 spectrofluorometer (Jobin Yvon Inc., Edison, N.J.). For FRET-based assays, the fluorescence of 6-FAM was monitored with an excitation wavelength of 488 mn and an emission wavelength of 515 nm. For anisotropy-based experiments, the fluorescence of TAMRA was monitored with 555 nm as the excitation and 580 mn as the emission wavelength. […] In the aptamer/thrombin binding experiments, a very small volume of α-thrombin at a high concentration was added to an aptamer solution in the cuvette to make a molar ratio of aptamer and thrombin 1:1, and the fluorescence signals were recorded before and after the addition. […]

thrombin = molecular target: T2, thrombin (Homo sapiens, UniProt P00734); test: Kinetic studies of competitive assays (order of incubation, concentration dependence); format: binding; conditions: 100 nM FQ-15Ap, 100 nM thrombin, 500 nM HirF, 5° C., 6-FAM fluorescence
T2 construct: Human oa-thrombin (M.W. ˜36.7 kDa); purchased Haematologic Technologies Inc. (Essex Junction, Vt.)
Procedure: Experiments were conducted in a 100 μL cuvette in the spectrofluorometer. While the detection system was running, the reaction samples were quickly mixed together. Data were recorded from the point of mixing to when the signal reached the plateau and stabilized. The reaction was regarded completed when the signal was at the plateau. […] The temperatures of reactions were maintained using a RTE-111 water bath/circulator (Neslab Instruments, Inc., Newington, N.H.).
In order to evaluate the possibilities of such false negatives in the assays, a comparison of the reaction rates of aptamer and prey proteins with thrombin were conducted. One direct way to conduct the comparison is to change the order the aptamer and the prey protein are incubated with thrombin. In one experiment, the prey protein was incubated with thrombin first and then the aptamer was used to displace the prey protein from the thrombin/protein complex. In another experiment, the order of adding aptamer and prey protein to thrombin was reversed. […]
Another indirect method was also used to study the effects of aptamer on thrombin/protein interactions. […] Different concentrations of AT3 were added to thrombin/T-15Ap incubation solution and the anisotropy of the aptamer was monitored as AT3 would displace T-15Ap.

α-thrombin [2] = molecular target: T1, α-thrombin; conditions: stated as known property; cited from earlier work
α-thrombin [3] = molecular target: T1, α-thrombin; conditions: reported value used for the calculation; read-out: reported 15mer aptamer-thrombin Kd/AT; cited from earlier work
α-thrombin [4] = molecular target: T1, α-thrombin; test: Fluorescence anisotropy of TAMRA-labeled aptamer on binding α-thrombin; conditions: aptamer/α-thrombin 1:1
Procedure: Fluorescence measurements were performed on a Fluorolog-3 spectrofluorometer (Jobin Yvon Inc., Edison, N.J.). For FRET-based assays, the fluorescence of 6-FAM was monitored with an excitation wavelength of 488 mn and an emission wavelength of 515 nm. For anisotropy-based experiments, the fluorescence of TAMRA was monitored with 555 nm as the excitation and 580 mn as the emission wavelength. Slit widths were varied to yield the best signals. All measurements were carried out in a 100 μL cuvette. In the aptamer/thrombin binding experiments, a very small volume of α-thrombin at a high concentration was added to an aptamer solution in the cuvette to make a molar ratio of aptamer and thrombin 1:1, and the fluorescence signals were recorded before and after the addition. […]
where the subscripts V and H refer to the orientation (vertical or horizontal) of the polarizers for the intensity measurements, with the first subscript indicating the position of the excitation polarizer and the second for the emission polarizer. G is the G-factor of the spectrofluorometer, which is calculated as G=IHV/IHH. […] For a certain dye, the G-factor would be measured and used throughout the experiments that used the same dye. […] For TAMRA, all intensities were measured at an emission wavelength of 580 nm with an excitation wavelength of 555 nm. […]

6-FAM fluorescence change upon addition of α-thrombin (α-thrombin [1]): decreased 6-FAM fluorescence
Substance: 5′-(6-FAM)-ACCCGTGGTAGGGTAGGATGGGGTGGT-(Dabcyl)-3′ [FQ-27Ap]

Substance: 5′-(6-FAM)-GGT TGG TGT GGT TGG-(Dabcyl)-3′ (DNA GGTTGGTGTGGTTGG; DNA, 5' {6-FAM}, 3' {Dabcyl}, backbone not given here) [FQ-15Ap, 15mer thrombin aptamer dual-labeled with 6-FAM at the 5′ end and Dabcyl at the 3′ end]
kinetic profile depending on order of incubation with thrombin (thrombin): aptamer replacing HirF was even slower than HirF replacing aptamer
drop of 6-FAM fluorescence when excess α-thrombin was added (α-thrombin [1]; room temperature, 50 mM NaCl buffer): about 55%

Substance: 5′-ACCCGTGGTAGGGTAGGATGGGGTGGT-3′ (DNA ACCCGTGGTAGGGTAGGATGGGGTGGT; chemistry not given here) [27Ap]
capability to inhibit the enzymatic activity of thrombin (α-thrombin [2]): does not

Substance: 5′-GGT TGG TGT GGT TGG-3′ [15Ap]
Kd (α-thrombin [3]): 75 nM
capability to inhibit the enzymatic activity of thrombin (α-thrombin [2]): has the protein-inhibition capability

Substance: 5′-GGT TGG TGT GGT TGG-(TAMRA)-3′ [T-15Ap]
increase of anisotropy on mixing with α-thrombin (α-thrombin [4]): more than 30%
